Legend:
[1] = test system: SiHa human cervical cell line; assay: In vitro cytotoxicity (SRB growth inhibition) assay, SiHa; format: cell-based; parameters: dose or concentration left out as unconfirmed; settings: 72 h
Procedure: (§1) The SHetA2, SHetA3, SHetA4, SHet50 and 9-cis-RA compounds were evaluated in 4 cervical carcinoma cell lines. The SiHa, CC-1 and C33a human cervical cell lines were maintained in Minimal Essential Media (MEM) containing Earle's salts and L-glutamine supplemented with nonessential amino acids, 1% sodium pyruvate, 10% fetal bovine serum (FBS) and antibiotic/antimycotic. The HT-3 cervical carcinoma cell line was cultured in McCoy's 5a medium supplemented with 10% FBS and antibiotic/antimycotic. Cells were inoculated into 96 well microtiter plates at densities of 1000 cells/well and incubated for 24 h prior to addition of drugs. Drugs were dissolved in dimethyl sulfoxide (DMSO) and diluted in complete medium, prior to addition to triplicate culture wells to achieve final concentrations of […]. Following drug addition, the plates were incubated for 72 h. The assay was terminated by the addition of cold TCA and the cells were stained with 0.4% sulforhodamine B (SRB) in 1% acetic acid. Bound stain was subsequently solubilized with 10 mM trizma base, and the absorbance was read on an automated plate reader at a wavelength of 560 nm. Growth inhibition was determined by dividing the average Optical Density (OD) of the triplicated treated cultures by the average OD of the triplicate control cultures treated with DMSO solvent only. This ratio was converted into a percentage by multiplying by 100. The potency (concentration required to induce half of the maximal activity—GI50) were derived from dose-response graphs generated with results from 3 to 5 individual experiments using GraphPad Software.

[2] = test system: human Caki renal cancer xenografts; assay: Caki renal cancer xenograft model; format: in vivo, mouse
Procedure: (§2) FIG. 12. Various Xenograft tumors stained with CD34 antibodies (brown) to identify endothelium. The B16 mouse melanoma cell line was established as a syngeneic tumor in an immunocompetent mouse model and the human Caki renal cancer and A2780 ovarian xenograft tumors in immunocompromised mice. The treated mice were gavaged with 60 mg/kg/day SHetA2 and the untreated were gavaged with solvent only. The tumors were excised and sections were stained with the anti-CD34 antibody to detect endothelial cells (brown stain).
FIG. 20. Mice harboring Caki renal cancer xenografts were treated with 60 mg/kg/day SHetA2 or PEG400 vehicle for 15 days. After another 15 days of growth, the tumors were removed, fixed, embedded and sections. Sections were stained with PAS to identify glycoproteins and lysosomes. The untreated tumor is on the left and the treated tumor is on the right.
(§3) Survival was the primary endpoint of those studies. […] Tumor growth was the primary endpoint of the renal cancer study.

Thrombospondin 4 (TSP4) = assay: Real time rt-PCR and Western blot validation, TSP-4; format: cell-based; settings: 1 μM (rt-PCR, OVCAR-3) and 10 μM (Western blot, A2780)
Procedure: FIG. 13. Real Time rt-PCR validation of SHetA2 inhibition of TP and TSP-1 mRNA Expression. OVCAR-3 cultures were treated with 1 μM SHetA2 for the indicated period of time prior to harvesting the cells and isolating RNA. cDNA was prepared and used in real time rt-PCR reactions. Real time rt-PCR was performed on CDNA from cultures various treatment times.
FIG. 14. Western blot validation of SHetA2 inhibition of TP and TSP4 protein expression. A2780 ovarian cancer cells were treated with 10 μM SHetA2 for the indicated amounts of time. Equal amounts of whole cell protein extracts were evaluated by Western blot.

[3] = test system: CC-1 human cervical cell line; assay: In vitro cytotoxicity (SRB growth inhibition) assay, CC-1; format: cell-based; parameters: dose or concentration left out as unconfirmed; settings: 72 h
Procedure: as §1

Raldh2 −/− embryos = assay: Rescue of Raldh2 −/− embryos and teratogenesis; format: in vivo, mouse; settings: for No. of −/− rescued / No. of −/− unrescued / Teratogenesis (no. of embryos): E10.25 embryos
Procedure: Dosages varied from 0.025 to 25 mg/kg.

NF-κB = NF-κB luciferase reporter assay in A2780 cultures; format: cell-based; settings: 10 μM SHetA2, inhibition increased over 4 hours
Procedure: FIG. 15. SHetA2 Inhibition of NF-κB. A2780 cultures were transfected with the NF-κB reporter and treated with 10 μM SHetA2 for the indicated times. Cell lysates were prepared and evaluated for luciferase activity which was normalized for protein concentration.
Because both TP and TSP4 have DNA binding sites for the NFκB transcription factor in their promoter, the ability of SHetA2 to inhibit activity of NF-κB in ovarian cancer cultures was tested using a luciferase reporter plasmid driven by NF-κB sites in the promoter. […] Inhibition increased over the 4 hour evaluation time (FIG. 15).

B16 mouse melanoma = assay: B16 melanoma syngeneic tumor model; format: in vivo; settings: oral 60 mg/kg/day
Procedure: as §2, §3

[4] = dose 2.5 mg/kg oral to pregnant mice
[5] = dose 10 mg/kg oral to pregnant mice
[6] = dose 25 mg/kg oral to pregnant mice

CC1(C)CC(C)(C)c2cc(NC(=S)Nc3ccc([N+](=O)[O-])cc3)ccc2S1 [SHetA2]
Efficacy: percent growth inhibition relative to the untreated control [1]: 68%
tumor growth ([2]; renal cancer model, oral 60 mg/kg/day): decreased tumor growth
PAS stain: general glycoprotein expression and lysosomal staining ([2]; renal xenograft tumors, 60 mg/kg/day for 15 days, versus untreated tumors): increase in general glycoprotein expression and lysosomal staining
development of blood vessels inside tumors (anti-CD34 staining) ([2]; renal, oral 60 mg/kg/day): inhibited the development of blood vessels
expression of TSP-4 at the RNA and protein levels (Thrombospondin 4 (TSP4)): inhibit expression
Efficacy: percent growth inhibition relative to the untreated control [3]: 58%
rescue of Raldh2 −/− embryos (phenotype) (Raldh2 −/− embryos; 2.5 mg/kg to pregnant mothers): no rescue
rescue of Raldh2 −/− embryos (phenotype) (Raldh2 −/− embryos; 10 or 25 mg/kg to pregnant mothers): no rescue
teratogenesis in litters (Raldh2 −/− embryos; any dosage (2.5, 10, 25 mg/kg)): no teratogenesis was observed
No. of −/− rescued (Raldh2 −/− embryos; [4]): 0
No. of −/− unrescued (Raldh2 −/− embryos; [4]): 1
Teratogenesis (no. of embryos) (Raldh2 −/− embryos; [4]): 0
No. of −/− rescued (Raldh2 −/− embryos; [5]): 0
No. of −/− unrescued (Raldh2 −/− embryos; [5]): 5
Teratogenesis (no. of embryos) (Raldh2 −/− embryos; [5]): 0
No. of −/− rescued (Raldh2 −/− embryos; [6]): 0
No. of −/− unrescued (Raldh2 −/− embryos; [6]): 1
Teratogenesis (no. of embryos) (Raldh2 −/− embryos; [6]): 0
time to inhibition of NF-κB reporter activity (NF-κB): ≤ 30 min
survival (B16 mouse melanoma; melanoma model): improved survival
development of blood vessels inside tumors (anti-CD34 staining) (B16 mouse melanoma; melanoma): inhibited the development of blood vessels

Reference: patent US20060281806A1, “Treatment and inhibition of disease conditions using flexible heteroarotinoids” (priority 2005, published 2006)
